Literature values, collected in patent publication US9522161B2, “Performance enhancing composition and method of delivering nutrients” (Advanced Bio Development, Inc., priority 2010, dated 2016).
Entries after “also recorded” stand apart in the source; their conditions may differ.

Assays:
[1] = system: mice that have a hypoinsulinemic type of diabetes; settings: mice with hypoinsulinemic type of diabetes
[2] = not given; remark: listed apart in the source
[3] = not given; remark: listed apart in the source
[4] = humans, chronic high-intensity exercise, ribose supplementation
[5] = consumed orally, within two hours
muscle = settings: ribose supplementation in rats, depending on muscle fiber type
[6] = not given; remark: listed apart in the source
[7] = taken orally
[8] = pilot studies and human trials

SMILES: CO[C@H]1[C@H](O)[C@@H](O)[C@@H](O)[C@H](O)[C@@H]1O [Pinitol]
- stimulation of glucose uptake in muscle cells (muscle cells): 25-80%

SMILES: CO[C@H]1[C@H](O)[C@@H](O)[C@@H](O)[C@H](O)[C@@H]1O [D-pinitol]
- insulin-like effect [1]: acute and chronic insulin-like effect

SMILES: Cn1c(=O)c2c(ncn2C)n(C)c1=O [Caffeine]
- time until elevated levels appear in the bloodstream (after consumption): 15 to 45 min
- time of peak concentrations post ingestion (post ingestion): one
- decrease of circulating concentrations (within three to six hours of consumption): 50 to 75%

SMILES: COC1=C(OC)C(=O)C(C/C=C(\C)CC/C=C(\C)CC/C=C(\C)CC/C=C(\C)CC/C=C(\C)CC/C=C(\C)CC/C=C(\C)CC/C=C(\C)CC/C=C(\C)CCC=C(C)C)=C(C)C1=O [CoQ10, Coenzyme Q10]
- increase in plasma concentrations ([2]; dosages of 90 to 150 mg/day): 180%
- uptake of CoQ10 into the blood, share of the dose administered ([2]; in vivo): 5 to 10%
- safety in cardiovascular-related clinical trials ([3]; 2,152 patients, 100 to 200 mg per day): safe, without any reports of toxicity or drug interactions
- share of users with gastrointestinal side effects ([3]; nausea, vomiting, diarrhea, appetite suppression, heartburn, epigastric discomfort): Less than one
- dosing level shown to be safe and well tolerated ([3]; over 8 months): ≤ 3,000 mg per day

SMILES: O=C[C@H](O)[C@H](O)[C@H](O)CO [Ribose]
- time to return TAN and ATP levels to baseline [4]: 65 to 72 h
- fraction of ribose absorbed in the intestines [5]: 88-100%
- increase in hypoxanthine salvage (muscle): six- to eight-fold
- increase in nucleotide salvage (muscle): three- to six-fold
- known side effects ([6]; doses of 10 grams or more on an empty stomach): transient hypoglycemia; also recorded: gastrointestinal discomfort, including loose stools and diarrhea
- ribose level that can be safely ingested ([6]; in vivo): ≤ 15 g per day

SMILES: Nc1ncnc2c1ncn2[C@@H]1O[C@H](COP(=O)(O)OP(=O)([O-])OP(=O)([O-])O)[C@@H](O)[C@H]1O.[Na+].[Na+] [ATP disodium, adenosine triphosphate (ATP) disodium]
- duration of measurable increase in circulating ATP levels [7]: at least six
- adverse side effects [8]: no adverse side effects have been observed
